Assay results taken from ChEMBL document CHEMBL1275492, “In vitro activity of ceftobiprole against pathogens from two phase 3 clinical trials of complicated skin and skin structure infections” (2008).

Tests used:
Format in all cases: functional
[1] = test system: Staphylococcus epidermidis; test: Antibacterial activity against coagulase-negative Staphylococcus epidermidis obtained from complicated skin and skin structure infections by agar dilution method
[2] = test system: Staphylococcus lugdunensis; test: Antibacterial activity against methicillin-resistant, oxacillin-susceptible, coagulase-negative, mecA-positive Staphylococcus lugdunensis obtained from complicated skin and skin structure infections by agar dilution method
[3] = test system: Salmonella; test: Antibacterial activity against Salmonella spp. obtained from complicated skin and skin structure infections by agar dilution method
[4] = test system: Lactococcus lactis; test: Antibacterial activity against Lactococcus lactis obtained from complicated skin and skin structure infections by agar dilution method
[5] = test system: Citrobacter freundii; test: Antibacterial activity against Citrobacter freundii obtained from complicated skin and skin structure infections by agar dilution method
[6] = test system: Acinetobacter baumannii; test: Antibacterial activity against Acinetobacter baumannii obtained from complicated skin and skin structure infections by agar dilution method
[7] = test system: Enterococcus faecalis; test: Antibacterial activity against Enterococcus faecalis obtained from complicated skin and skin structure infections by agar dilution method
[8] = test system: Staphylococcus intermedius; test: Antibacterial activity against Staphylococcus intermedius obtained from complicated skin and skin structure infections by agar dilution method
[9] = Antibacterial activity against Streptococcus sp. 'group C' obtained from complicated skin and skin structure infections by agar dilution method
[10] = test system: Staphylococcus aureus; test: Antibacterial activity against Staphylococcus aureus obtained from complicated skin and skin structure infections by agar dilution method
[11] = test system: Morganella morganii; test: Antibacterial activity against Morganella morganii obtained from complicated skin and skin structure infections by agar dilution method
[12] = test system: Bacteroides fragilis; test: Antibacterial activity against Bacteroides fragilis obtained from complicated skin and skin structure infections by agar dilution method
[13] = test system: Staphylococcus; test: Antibacterial activity against methicillin-susceptible, coagulase-negative Staphylococcus obtained from complicated skin and skin structure infections by agar dilution method
[14] = test system: Bacillus; test: Antibacterial activity against Bacillus spp. obtained from complicated skin and skin structure infections by agar dilution method
[15] = test system: Proteus penneri; test: Antibacterial activity against Proteus penneri obtained from complicated skin and skin structure infections by agar dilution method
[16] = test system: Klebsiella oxytoca; test: Antibacterial activity against Klebsiella oxytoca obtained from complicated skin and skin structure infections by agar dilution method
[17] = test system: Streptococcus agalactiae; test: Antibacterial activity against Streptococcus agalactiae obtained from complicated skin and skin structure infections by agar dilution method
[18] = test system: Staphylococcus hominis; test: Antibacterial activity against coagulase-negative Staphylococcus hominis obtained from complicated skin and skin structure infections by agar dilution method
[19] = test system: Proteus vulgaris; test: Antibacterial activity against Proteus vulgaris obtained from complicated skin and skin structure infections by agar dilution method
[20] = test system: Gemella morbillorum; test: Antibacterial activity against Gemella morbillorum obtained from complicated skin and skin structure infections […]
[21] = test system: Staphylococcus lugdunensis; test: Antibacterial activity against coagulase-negative Staphylococcus lugdunensis obtained from complicated skin and skin structure infections by agar dilution method
[22] = test system: Streptococcus mitis; test: Antibacterial activity against Streptococcus mitis obtained from complicated skin and skin structure infections by agar dilution method
[23] = test system: Gemella; test: Antibacterial activity against Gemella spp. obtained from complicated skin and skin structure infections by agar dilution method
[24] = test system: Staphylococcus aureus; test: Antibacterial activity against methicillin susceptible Staphylococcus aureus obtained from complicated skin and skin structure infections by agar dilution method
[25] = test system: Staphylococcus capitis; test: Antibacterial activity against coagulase-negative Staphylococcus capitis obtained from complicated skin and skin structure infections by agar dilution method
[26] = test system: Staphylococcus saprophyticus; test: Antibacterial activity against coagulase-negative Staphylococcus saprophyticus obtained from complicated skin and skin structure infections by agar dilution method
[27] = test system: Prevotella; test: Antibacterial activity against Prevotella spp. obtained from complicated skin and skin structure infections by agar dilution method
[28] = test system: Serratia marcescens; test: Antibacterial activity against Serratia marcescens obtained from complicated skin and skin structure infections by agar dilution method
[29] = test system: Mammaliicoccus sciuri; test: Antibacterial activity against coagulase-negative Staphylococcus sciuri obtained from complicated skin and skin structure infections by agar dilution method
[30] = test system: Escherichia coli; test: Antibacterial activity against Escherichia coli obtained from complicated skin and skin structure infections by agar dilution method
[31] = test system: Pseudomonas fluorescens; test: Antibacterial activity against Pseudomonas fluorescens obtained from complicated skin and skin structure infections by agar dilution method
[32] = test system: Veillonella; test: Antibacterial activity against Veillonella spp. obtained from complicated skin and skin structure infections by agar dilution method
[33] = test system: Staphylococcus aureus; test: Antibacterial activity against methicillin resistant Staphylococcus aureus obtained from complicated skin and skin structure infections by agar dilution method
[34] = Antibacterial activity against Streptococcus sp. 'group G' obtained from complicated skin and skin structure infections by agar dilution method
[35] = test system: Staphylococcus haemolyticus; test: Antibacterial activity against coagulase-negative Staphylococcus haemolyticus obtained from complicated skin and skin structure infections by agar dilution method
[36] = test system: Stenotrophomonas maltophilia; test: Antibacterial activity against Stenotrophomonas maltophilia obtained from complicated skin and skin structure infections by agar dilution method
[37] = test system: Aerococcus viridans; test: Antibacterial activity against Aerococcus viridans obtained from complicated skin and skin structure infections by agar dilution method
[38] = test system: Enterobacter cloacae; test: Antibacterial activity against Enterobacter cloacae obtained from complicated skin and skin structure infections by agar dilution method
[39] = test system: Streptococcus constellatus; test: Antibacterial activity against Streptococcus constellatus obtained from complicated skin and skin structure infections by agar dilution method
[40] = test system: Staphylococcus warneri; test: Antibacterial activity against coagulase-negative Staphylococcus warneri obtained from complicated skin and skin structure infections by agar dilution method
[41] = test system: Enterobacter amnigenus; test: Antibacterial activity against Enterobacter amnigenus obtained from complicated skin and skin structure infections by agar dilution method; settings: Lelliottia amnigena
[42] = test system: Streptococcus pyogenes; test: Antibacterial activity against Streptococcus pyogenes obtained from complicated skin and skin structure infections by agar dilution method
[43] = test system: Klebsiella aerogenes; test: Antibacterial activity against Enterobacter aerogenes obtained from complicated skin and skin structure infections by agar dilution method
[44] = test system: Pseudomonas aeruginosa; test: Antibacterial activity against Pseudomonas aeruginosa obtained from complicated skin and skin structure infections by agar dilution method
[45] = test system: Providencia stuartii; test: Antibacterial activity against Providencia stuartii obtained from complicated skin and skin structure infections by agar dilution method
[46] = test system: Enterococcus faecium; test: Antibacterial activity against Enterococcus faecium obtained from complicated skin and skin structure infections by agar dilution method
[47] = test system: Citrobacter braakii; test: Antibacterial activity against Citrobacter braakii obtained from complicated skin and skin structure infections by agar dilution method
[48] = test system: Micrococcus; test: Antibacterial activity against Micrococcus spp. obtained from complicated skin and skin structure infections by agar dilution method
[49] = test system: Proteus mirabilis; test: Antibacterial activity against Proteus mirabilis obtained from complicated skin and skin structure infections by agar dilution method
[50] = test system: Klebsiella pneumoniae; test: Antibacterial activity against Klebsiella pneumoniae obtained from complicated skin and skin structure infections by agar dilution method
[51] = test system: Staphylococcus cohnii; test: Antibacterial activity against coagulase-negative Staphylococcus cohnii obtained from complicated skin and skin structure infections by agar dilution method

Nc1nc(/C(=N/O)C(=O)N[C@@H]2C(=O)N3C(C(=O)O)=C(/C=C4\CCN([C@@H]5CCNC5)C4=O)CS[C@H]23)ns1 [CEFTOBIPROLE]
4 µg/mL: MIC50 [44]
0.008 µg/mL: MIC50 [34] | MIC [42] | MIC50 [42]
1 µg/mL: MIC90 [1] | MIC90 [10] | MIC90 [18] | MIC90 [21] | MIC90 [25] | MIC90 [26] | MIC90 [29] | MIC90 [35] | MIC90 [40] | MIC90 [51]
2 µg/mL: MIC90 [2] | MIC90 [33]
0.12 µg/mL: MIC50 [4] | MIC90 [8] | MIC90 [9] | MIC50 [11] | MIC50 [14] | MIC90 [17] | MIC50 [20] | MIC90 [22] | MIC50 [23] | MIC90 [30] | MIC50 [37] | MIC90 [39] | MIC50 [48] | MIC90 [49]
≤ 0.03 µg/mL: MIC [12] | MIC [27] | MIC [32]
0.06 µg/mL: MIC50 [3] | MIC50 [5] | MIC50 [8] | MIC50 [9] | MIC50 [15] | MIC50 [16] | MIC50 [17] | MIC50 [19] | MIC50 [22] | MIC50 [28] | MIC50 [30] | MIC90 [34] | MIC50 [38] | MIC50 [39] | MIC50 [41] | MIC50 [43] | MIC50 [45] | MIC50 [47] | MIC50 [50]
0.5 µg/mL: MIC50 [1] | MIC50 [2] | MIC50 [7] | MIC90 [7] | MIC50 [10] | MIC90 [13] | MIC50 [18] | MIC50 [21] | MIC90 [24] | MIC50 [25] | MIC50 [26] | MIC50 [29] | MIC50 [33] | MIC50 [35] | MIC50 [40] | MIC50 [51]
> 64 µg/mL: MIC50 [6] | MIC90 [6] | MIC50 [31] | MIC90 [31] | MIC50 [36] | MIC90 [36] | MIC90 [38] | MIC90 [44] | MIC50 [46]
32 µg/mL: MIC90 [3] | MIC90 [5] | MIC90 [15] | MIC90 [16] | MIC90 [19] | MIC90 [28] | MIC90 [41] | MIC90 [43] | MIC90 [45] | MIC90 [47] | MIC90 [50]
0.25 µg/mL: MIC90 [4] | MIC50 [13] | MIC90 [14] | MIC90 [20] | MIC90 [23] | MIC50 [24] | MIC90 [37] | MIC90 [48]
0.015 µg/mL: MIC90 [42]
0.03 µg/mL: MIC50 [49]
64 µg/mL: MIC90 [11]
